Test results published in patent US20260240805A1, “ENTACTOGEN-ASSISTED THERAPY FOR ALCOHOL USE DISORDER AND ADDICTION-RELATED CONDITIONS AND COMORBIDITIES” (Solvonis Therapeutics Ireland Holdings Limited, priority 2021, published 2026).
Entries after “also recorded” stand apart in the source; their conditions may differ. Where two headings read alike, the source gives them in different places.

Legend:
AUD = conditions: early uncontrolled studies; cited from earlier work
[1] = cited from earlier work
individuals with PTSD = conditions: cited from earlier work
patients with AUD [2] = assay: Adverse events and tolerability (Example 8); format: in vivo, human
Method: This Example details an open-label, within-subjects, safety and tolerability feasibility study that was conducted in 14 patients aged 18-65 years old diagnosed with AUD who had recently undergone detoxification, and received MDMA-assisted therapy.
(§1) Dosing with MDMA occurred twice during the eight-week course on weeks 3 and 6.

[3] = doses of 100-125 mg; cited from earlier work
patients with AUD [4] = assay: Profile Of Mood States (POMS), seven-day follow-up after MDMA sessions (Example 8); format: in vivo, human; conditions: daily for seven days after each MDMA session; 14 participants, 26 sessions
Source text: (§2) Following the end of the eight-week therapeutic course, participants carried out additional follow-up questionnaires.
Seven-day follow-up after MDMA sessions: Considerable medical literature and the popular press report the anecdotal observation of ecstasy users experiencing an acute ‘come-down’ effect and a drop in mood in the days after using the drug recreationally. In order to measure this prospectively with clinical MDMA, we measured participants' mood states by daily Profile Of Mood States (POMS) measurements for seven days after each MDMA session (see FIG. 9). Positive scores represent depressed affect, zero represents no change in mood/affect and results below zero represent a positively felt mood.

patients with AUD [5] = assay: PHQ-9, GAD-7, psychosocial functioning and quality of life measures (Example 8); format: in vivo, human
CYP3A4 = CYP3A4 (Homo sapiens, UniProt P08684); conditions: single dose of MDMA of 1.5 mg/kg; cited from earlier work
[6] = cited from earlier work; remark: listed apart in the source
patients with AUD [7] = assay: Drinking behavior (TLFB, units of alcohol per week), open-label MDMA-assisted therapy study in AUD post-detox (Example 8); format: in vivo, human
patients with AUD [8] = assay: Suicidality, C-SSRS (Example 8); format: in vivo, human; conditions: during the course of the study
Source text: as §2
Suicidality. Participants underwent the C-SSRS at screening, baseline, throughout the eight-week therapy course, in the week after each MDMA session and at the three-, six-, and nine-month follow-up visits.

[9] = cited from earlier work; remark: listed apart in the source
[10] = cited from earlier work; remark: listed apart in the source
[11] = system: patients diagnosed with AUD; assay: Depression and anxiety levels, FIG. 3 and FIG. 4; format: in vivo, human; conditions: patients remaining at 9 months; 100% at screening
Method: Prior to undergoing the disclosed methods, specifically during the screening session, 12 patients were assessed for levels of depression. […] Directly after going through the detoxification process (noted as “baseline” in FIG. 3), one patient had mild depression, two had moderate depression, zero had moderately severe depression, and two had severe depression (out of 11 patients remaining in the study). The patients were then reassessed at 3, 6, and 9 months post-baseline (i.e., after completing a detoxification course, and prior to beginning the MDMA-assisted therapy regimen), wherein it was discovered that, at 3 months, two had mild depression, one had moderate depression, three had moderately severe depression, and one had severe depression (out of 9 patients remaining in the study); at 6 months, no patients suffered from mild or moderate depression, two had moderate severe depression, and one had severe depression (out of 6 patients remaining in the study); finally, at 9 months, one patient had mild depression, one had moderate depression, and one had moderate severe depression, with none having severe depression.
Prior to undergoing the disclosed methods, specifically during the screening session, 12 patients were assessed for levels of anxiety. […]

patients with AUD [12] = assay: Physiological measures, SUDS and Drug Effects during MDMA sessions (Example 8); format: in vivo, human
Method: as §1
Physiological and tolerability effects during MDMA sessions: In total, 26 drug-assisted psychotherapy sessions with MDMA were administered during the trial. Temperature, blood pressure and heart rate were measured at t=0, before taking MDMA, then half-hourly up to t=2 hours, then hourly thereafter for a minimum of 6-hours from the time of dosing (see FIG. 7).
Subjective Units of Distress (SUDS) and Participant report of Drug Effects were also measured, hourly, throughout the MDMA sessions (see FIG. 7). […] Participants gave their own subjective score (0-10) of whether they felt Drug Effects, and the therapists also recorded their own objective score of how “altered” the participant appeared. There was no significant difference between Observers' and Participants' Drug Effects scores. Drug Effects rose expectedly over the first two hours, with a notable further increase after the booster dose was given at t=2 hours, and a subsequent plateau then decline over the following six hours.

alcohol relapse = conditions: only in conjunction with psychosocial interventions; cited from earlier work
[13] = nine-month follow-up end point, of 14 participants

Sequence of CYP3A4 (P08684 whole entry): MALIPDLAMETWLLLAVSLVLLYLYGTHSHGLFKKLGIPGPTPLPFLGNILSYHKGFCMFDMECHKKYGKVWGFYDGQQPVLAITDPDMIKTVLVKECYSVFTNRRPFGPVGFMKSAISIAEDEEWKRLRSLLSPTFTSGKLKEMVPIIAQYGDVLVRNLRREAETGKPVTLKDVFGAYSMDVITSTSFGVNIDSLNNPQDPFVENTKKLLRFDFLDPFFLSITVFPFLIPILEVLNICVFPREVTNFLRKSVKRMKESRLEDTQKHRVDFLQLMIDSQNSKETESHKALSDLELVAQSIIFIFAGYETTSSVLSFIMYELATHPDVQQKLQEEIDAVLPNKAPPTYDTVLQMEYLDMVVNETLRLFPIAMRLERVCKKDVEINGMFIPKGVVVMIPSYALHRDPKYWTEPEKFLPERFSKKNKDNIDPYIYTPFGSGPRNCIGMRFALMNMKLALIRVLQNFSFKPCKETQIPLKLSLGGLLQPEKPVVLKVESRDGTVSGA

**Q.** Which abstinence rates (AUD) does the source give for `CCN(CC)C(=O)[C@@H]1C=C2c3cccc4[nH]cc(c34)C[C@H]2N(C)C1` [LSD] here?
**A.** 30-50%

**Q.** With `CNC(C)Cc1ccc2c(c1)OCO2` (stereo not shown) [MDMA base] as the compound, how does the solubility in water [1] read?
**A.** insoluble in water

**Q.** What does the source list for `CNC(C)Cc1ccc2c(c1)OCO2` (stereo not shown) [MDMA, 1-(1,3-benzodioxol-5-yl)-N-methylpropan-2-amine]?
**A.** effect size, self-reported improvement (individuals with PTSD; 12 subjects, Oehen 2013): 1.1; symptom relief, long-term follow-up (individuals with PTSD; chronic, treatment-resistant PTSD, Mithoefer 2010, 2013): statistically and clinically-significant gains in symptom relief with no subjects reporting harm; safety and tolerability (individuals with PTSD; phase 3, severe PTSD, even with comorbidities): safe and well-tolerated; efficacy vs therapy with inactive placebo (individuals with PTSD; phase 3, severe PTSD, Mitchell 2021): highly efficacious; tolerability of MDMA treatment (patients with AUD [2]; AUD post-detox, 187.5 mg each session): well-tolerated by all participants; desire to use illicit ecstasy/illicit MDMA (patients with AUD [2]; following clinical MDMA): No participants reported any desire to use illicit ecstasy/illicit MDMA; psychotic symptoms (patients with AUD [2]; in vivo): No psychotic symptoms were observed; increase in diastolic blood pressure [3]: 14.4-25 mmHg; increase in heart rate [3]: 26-30 bpm; POMS mood disturbance (patients with AUD [4]): no evidence of any mood disturbance; also recorded: sustained a positive mood for seven days; PHQ-9 and GAD-7 scores (patients with AUD [5]; after screening and baseline time points): reduction in both anxiety and depression; psychosocial functioning (patients with AUD [5]; in vivo): improved across the cohort; quality of sleep, quality of life, compassion and empathy scales (patients with AUD [5]; in vivo): demonstrating benefits and improvements; CYP3A4 activity (CYP3A4): decrease in CYP3A4 activity; serious adverse reaction ([6]; 125 mg MDMA, third of three MDMA-assisted sessions, one individual): increased frequency of ventricular extrasystoles (PVCs); commonly reported effects ([6]; Phase 1 studies in healthy volunteers): elevation in blood pressure and heart rate, increased anxiety or dysphoria, and dilated pupils; decrease in alcohol consumption (patients with AUD [7]; 3 months post-detox vs pre-detox): 87.1%; decrease in alcohol consumption (patients with AUD [7]; 6 months post-detox vs pre-detox): 71%; units of alcohol per week (patients with AUD [7]; 6 months post-detox, 130.6 units per week pre-detox): 38.0 units of alcohol per week; decrease in alcohol consumption (patients with AUD [7]; 9 months post-detox vs pre-detox): 85.7%; average units of alcohol consumption per week (patients with AUD [7]; 9 months post-detox, 130.6 units per week pre-detox): 18.7 units/week; outcomes of other comorbid addictions (SUDs and BAs) (patients with AUD [7]; along the course of treatment): unexpectedly improved outcomes of other comorbid addictions; participants drinking fewer than 14 units of alcohol per week (patients with AUD [7]; [13]): 11 participants; participants relapsed to drinking more than 14 units of alcohol per week (patients with AUD [7]; [13]): three; participants totally abstinent from alcohol (patients with AUD [7]; [13]): nine; participants drinking in excess of 14 units of alcohol a week (patients with AUD [7]; over 9 months, 75% in the Outcomes Study without MDMA): 21%; C-SSRS suicidal ideation, intent or plans or self-harm behavior (patients with AUD [8]): No participants reported current suicidal ideation, intent or plans or self-harm behavior; time to peak plasma concentration ([9]; humans, doses 100-125 mg): 2 to 3 h; elimination half-life ([9]; similar results for doses 50-125 mg): 7 to 9 h; time of peak subjective effects ([10]; 100 mg MDMA, healthy volunteers, brain imaging studies): 100 min; duration of subjective effects ([10]; 100 mg MDMA, healthy volunteers): approximately 4.5 hours; time of peak subjective effects ([10]; Harris 2002): 90 to 120 min; time to return to baseline values ([10]; Harris 2002): 5 to 6 h; time to subjective effects ([10]; Harris 2002): approximately 45 mins; duration of effects ([10]; one dose): 4 to 5 h; onset of action ([10]; patients with PTSD, after the initial dose): 45 to 75 min; time of peak drug effects ([10]; patients with PTSD): 2 to 5 h; duration of effects ([10]; with the booster dose): 5 to 6 h; patients found to have anxiety [11]: about 67%; patients found to have depression [11]: 50%; temperature, blood pressure and heart rate during MDMA sessions (patients with AUD [12]; 26 sessions, except for one participant): remained within normal limits; Drug Effects scores (0-10) (patients with AUD [12]; by the end of the MDMA session day): all drug effects had returned to baseline; Subjective Units of Distress (SUDS) (patients with AUD [12]; hourly during the MDMA session): subsequently reduced during the course of the session; rise in blood pressure, temperature and heart rate over the course of the MDMA session (patients with AUD [12]; in vivo): mild, transient rise; neurocognitive impairments (patients with AUD [12]; weeks and months following participation): No participants reported any significant neurocognitive impairments

**Q.** For `CC(=O)NCCCS(=O)(=O)O` [acamprosate], which “effect in relapse prevention” value (alcohol relapse) is on record?
**A.** only minor positive effects in relapse prevention

**Q.** Which “effect in relapse prevention” value (alcohol relapse) does the source give for `O=C1CC[C@@]2(O)[C@H]3Cc4ccc(O)c5c4[C@@]2(CCN3CC2CC2)[C@H]1O5` [naltrexone] here?
**A.** only minor positive effects in relapse prevention
